Measured values taken from patent publication US4758589A, “Tetraphosphine-coordinated gold(I) complexes” (SmithKline Beckman Corporation, priority 1987, dated 1988).
Values joined by “and” are separate entries in the source; they are usually repeats but may differ in a detail not shown here. Identical values can stand only once.

How the values were obtained:
[1] = Struck et al., J. Med. Chem., 9, 414-417 (1966); cited from earlier work
[2] = test system: M5076 reticulum cell sarcoma; assay: ip M5076 reticulum cell sarcoma tumor model; format: in vivo, mouse (B6D2F); details: mice bearing ip M5076 reticulum cell sarcoma; ip daily for 10 days
Description: (§1) Another chemosensitive tumor model is intraperitoneally (ip) implanted M5076 reticulum cell sarocma in mice. In this system B6D2F female mice are inoculated with 0.5 ml of a 10 percent (w:v) brei of M5076 prepared from pooled subcutaneous (sc) tumors excised at about 21 days from C57B1/6 donors. Drugs are administered ip. Daily treatment is begun 24 hours after implantation and is continued for ten days. The treatment regimen for M5076 is more prolonged than for P388 because of the slower growth rate and longer control survival time of the M5076 tumor. A drug is considered active in this tumor model if it produces ≥25% ILS.

[3] = maximally tolerated dose, mice, ip qD x 10 (Table C); format: in vivo, mouse (B6D2F female); details: B6D2F female mice, ip qD x 10 regimen
Description: as §1
^(b) maximally tolerated dose for B6D2F female mice on ip qD ×

[4] = test system: B16 melanoma; assay: in vivo ip B16 melanoma assay; design: species or system mouse (B6D2F1); details: mice bearing ip B16 melanoma; ip daily for 10 days
Description: (§2) In this system, groups of eight B6D2F1 mice are inoculated ip with 0.5 ml of a 10% (w:v) brei of B15 melanoma prepared from pooled sc tumors excised at 14-21 days from […] donor mice. Daily treatment is begun 24 hours after tumor implantation and is continued daily for ten (10) days. The route of drug administration is ip. The mice are monitored daily for survival for sixty (60) days. Antitumor activity is assessed by prolongation of median survival time. An ILS of ≥25% indicates activity in this tumor model.

[5] = maximally tolerated dose, mice, ip qD x 10 (Table B); format: in vivo, mouse (B6D2F1); details: B6D2F1 mice, ip qD x 10 regimen
Description: as §2
^(b) maximally tolerated dose for B6D2F1 mice on an ip qD .times

[6] = test system: P388 leukemia; assay: in vivo ip P388 lymphocytic leukemia mouse model; design: species or system mouse (B6D2F1); details: mice bearing ip P388 leukemia; ip Days 1-5; figures separated by slashes are from separate experiments
From the text: P388 lymphocytic leukemia is currently the most widely used animal tumor model for screening for antitumor agents and for detailed evaluation of active compounds. This tumor system is widely accepted as an antitumor agent screening tool because it is sensitive to virtually all of the clinically active antineoplastic agents; quantitative and reproducible; amenable for large-scale screening; and predictive for activity in other animal tumor models.
10^6 P388 leukemia cells are inoculated ip in B6D2F1 mice. Twenty-four hours later, if the tumor inoculum proves to be free of bacterial contamination (as determined by 24 hours incubation in thioglycollate broth), animals are randomized into groups of 6 and housed in shoebox cages. The compound to be evaluated is dissolved in a minimal volume of N,N-dimethylacetamide (DMA). An equal volume of saline is added; if the drug comes out of solution an equal volume of polyethoxylated castor oil is added and then saline qs to a concentration such that the desired dose is delivered in 0.5 ml. The final concentration of DMA and polyethoxylated castor oil is 10 percent. Dilutions for lower doses are made with saline so there is a decreasing proportion of organic solvents in the vehicle with decreasing dosage. This vehicle provides a soluble formulation. […] Animals are monitored daily for mortality and experiments are terminated after 45 days. […]

Compound | cytotoxic activity [1] | ILS (MAX): maximum increase in lifespan [2] | MTD (maximally tolerated dose) [3] | ILS: maximum increase in lifespan [4] | MTD (maximally tolerated dose) [5] | ILS (max): maximum increase in lifespan [6]
c1ccc(P(CCP(c2ccccc2)c2ccccc2)c2ccccc2)cc1 [1,2-bis(diphenylphosphino)ethane] | cytotoxic activity | – | – | – | – | –
[Cl][Au].c1ccc(P(CCP(CCP(c2ccccc2)c2ccccc2)c2ccccc2)CCP(c2ccccc2)c2ccccc2)cc1 (stereo not drawn) [Compound 1, Chloro[1,1,4,7,10,10-hexaphenyl-1,4,7,10-tetraphosphodecane-P^1, P^4, P^7, P^10]gold(I)] | – | 38% | 2 mg/kg | 37% | 2 mg/kg | 40% and 65%
